# Patent US20260053764A1, “COMPOSITION FOR PREVENTING DETERIORATION IN COGNITIVE FUNCTION AND/OR IMPROVING COGNITIVE FUNCTION” (PHARMA FOODS INTERNATIONAL CO., LTD., priority 2020, published 2026)
# Tested on: cognitive function of a human
# Assay: Cognitrax test in placebo-controlled randomized double-blind clinical tests A and B
# Type: in vivo
# Design: Reaction time / Complex attention / Cognitive flexibility / Social acuity / Non-verbal reasoning / Working memory / Continuous attention / Simple attention: scale not given here
# Text: A Cognitrax test is known as such an examination that can assess a plurality of domains or items of cognitive function. The Cognitrax test is a cognitive function examination service practiced on the Web based on the cognitive function examination technique developed by CNS Vital Signs in the United States. In the Cognitrax test, among a total of 10 types of tests, which are verbal memory test, visual memory test, finger tapping test, symbol digit coding test (SDC test), Stroop test, shifting attention test, continuous performance test, perception of emotion test, reasoning test and four part continuous performance test, a test is carried out in accordance with the purpose of the examination to digitize the examination result regarding each of a total of 16 types of items at most, which are neurocognition index, composite memory, verbal memory, visual memory, psychomotor speed, reaction time, complex attention, cognitive flexibility, processing speed, executive function, social acuity, non-verbal reasoning, working memory, continuous attention, simple attention and motor speed.
# Two types of placebo-controlled randomized double-blind two-group parallel comparison tests were carried out as clinical tests. […] Specifically, capsules comprising 100 mg of dextrin per capsule were used as the placebo food.
# The screening examination was carried out to select 60 subjects for each test (a total of 120 subjects). MMSE (Mini Mental State Examination) is an examination for assessing the degree of progression of dementia or the like based on the score thereof with 30 as the perfect score, wherein dementia is suspected with a score of 23 or lower.
# • (1) Japanese male and female at the age of 40 or higher • (2) People aware of reduction in cognitive function • (3) People who can continuously ingest the test food every day for 12 weeks • (4) People with an MMSE score of 24 or higher • (5) People who have received sufficient explanation of the purpose/content of the clinical test, have the ability to give consent, voluntarily applied to participate in the clinical test with sufficient understanding, and gave consent to the participation in the clinical test on paper
# The total of 120 subjects were randomly divided into test A active group, test A placebo group, test B active group and test B placebo group with 30 subjects in each group. Each subject of the test A active group ingested two capsules of the active food, each subject of the test A placebo group ingested two capsules of the placebo food, each subject of the test B active group ingested one capsule of the active food and each subject of the test B placebo group ingested one capsule of the placebo food.
# Each subject followed the schedule shown in the table below and ingested one or two of the assigned capsules together with water for 12 weeks from two weeks after the initial screening examination. All subjects had no particular instruction during the ingestion period and freely took their meals.
# As shown with ● in the test schedule in Table 1, Cognitrax was carried out a total of five times, which are upon screening, before starting test food sample ingestion, after four weeks of ingestion, after eight weeks of ingestion and after twelve weeks of ingestion, and the RBANS neuropsychological test was carried out a total of two times, which are before staring test food ingestion and after twelve weeks of ingestion.
# [1] = test B 100 mg, before ingestion
# [2] = test B 100 mg, before ingestion, mean ± SD
structure (smiles),measurement,setting,value
"NCCCC(=O)O [GABA, γ-aminobutyric acid]",Cognition flexibility: difference between active food and placebo food groups,"test B 100 mg, 4 w",−3.6
same,Complex attention: difference between active food and placebo food groups,"test B 100 mg, 4 w",−4.0
same,Composite memory: difference between active food and placebo food groups,"test B 100 mg, 4 w",7.2
same,Continuous attention: difference between active food and placebo food groups,"test B 100 mg, 4 w",−0.6
same,Executive function: difference between active food and placebo food groups,"test B 100 mg, 4 w",−3.2
same,Motor speed: difference between active food and placebo food groups,"test B 100 mg, 4 w",6.9
same,Non-verbal reasoning: difference between active food and placebo food groups,"test B 100 mg, 4 w",0.5
same,Processing speed: difference between active food and placebo food groups,"test B 100 mg, 4 w",0.8
same,Psychomotor speed: difference between active food and placebo food groups,"test B 100 mg, 4 w",5.3
same,Reaction time: difference between active food and placebo food groups,"test B 100 mg, 4 w",0.8
same,Simple attention: difference between active food and placebo food groups,"test B 100 mg, 4 w",−5.8
same,Social acuity: difference between active food and placebo food groups,"test B 100 mg, 4 w",−4.4
same,Verbal memory: difference between active food and placebo food groups,"test B 100 mg, 4 w",9.1
same,Visual memory: difference between active food and placebo food groups,"test B 100 mg, 4 w",2.4
same,Working memory: difference between active food and placebo food groups,"test B 100 mg, 4 w",0.4
same,Cognitive flexibility,"test B 100 mg, 4 w, mean ± SD",105.8 ± 11.3
same,Complex attention,"test B 100 mg, 4 w, mean ± SD",106.3 ± 12.9
same,Continuous attention,"test B 100 mg, 4 w, mean ± SD",111.8 ± 7.2
same,Reaction time,"test B 100 mg, 4 w, mean ± SD",97.8 ± 10.8
same,Simple attention,"test B 100 mg, 4 w, mean ± SD",97.8 ± 25.2
same,Social acuity,"test B 100 mg, 4 w, mean ± SD",90.5 ± 16.7
same,Working memory,"test B 100 mg, 4 w, mean ± SD",110.4 ± 9.3
same,Cognition flexibility: difference between active food and placebo food groups,"test B 100 mg, 8 w",−0.5
same,Complex attention: difference between active food and placebo food groups,"test B 100 mg, 8 w",−0.4
same,Composite memory: difference between active food and placebo food groups,"test B 100 mg, 8 w",7.4
same,Continuous attention: difference between active food and placebo food groups,"test B 100 mg, 8 w",−0.8
same,Executive function: difference between active food and placebo food groups,"test B 100 mg, 8 w",−0.4
same,Motor speed: difference between active food and placebo food groups,"test B 100 mg, 8 w",7.3
same,Non-verbal reasoning: difference between active food and placebo food groups,"test B 100 mg, 8 w",0.5
same,Processing speed: difference between active food and placebo food groups,"test B 100 mg, 8 w",1.5
same,Psychomotor speed: difference between active food and placebo food groups,"test B 100 mg, 8 w",6.3
same,Reaction time: difference between active food and placebo food groups,"test B 100 mg, 8 w",1.4
same,Simple attention: difference between active food and placebo food groups,"test B 100 mg, 8 w",2.8
same,Social acuity: difference between active food and placebo food groups,"test B 100 mg, 8 w",6.1
same,Verbal memory: difference between active food and placebo food groups,"test B 100 mg, 8 w",8.8
same,Visual memory: difference between active food and placebo food groups,"test B 100 mg, 8 w",3.1
same,Working memory: difference between active food and placebo food groups,"test B 100 mg, 8 w",−1.8
same,Complex attention,"test B 100 mg, 8 w, mean ± SD",109.6 ± 10.3
same,Continuous attention,"test B 100 mg, 8 w, mean ± SD",110.2 ± 8.9
same,Non-verbal reasoning,"test B 100 mg, 8 w, mean ± SD",106.2 ± 12.2
same,Reaction time,"test B 100 mg, 8 w, mean ± SD",97.9 ± 10.0
same,Simple attention,"test B 100 mg, 8 w, mean ± SD",101.3 ± 13.0
same,Social acuity,"test B 100 mg, 8 w, mean ± SD",95.4 ± 17.0
same,Working memory,"test B 100 mg, 8 w, mean ± SD",109.8 ± 9.5
same,Cognition flexibility: difference between active food and placebo food groups,"test B 100 mg, 12 w",−2.3
same,Complex attention: difference between active food and placebo food groups,"test B 100 mg, 12 w",−2.5
same,Composite memory: difference between active food and placebo food groups,"test B 100 mg, 12 w",5.5
same,Continuous attention: difference between active food and placebo food groups,"test B 100 mg, 12 w",0.0
same,Executive function: difference between active food and placebo food groups,"test B 100 mg, 12 w",−2.4
same,Motor speed: difference between active food and placebo food groups,"test B 100 mg, 12 w",6.5
same,Non-verbal reasoning: difference between active food and placebo food groups,"test B 100 mg, 12 w",3.9
same,Processing speed: difference between active food and placebo food groups,"test B 100 mg, 12 w",2.4
same,Psychomotor speed: difference between active food and placebo food groups,"test B 100 mg, 12 w",5.4
same,Reaction time: difference between active food and placebo food groups,"test B 100 mg, 12 w",−1.7
same,Simple attention: difference between active food and placebo food groups,"test B 100 mg, 12 w",−6.5
same,Social acuity: difference between active food and placebo food groups,"test B 100 mg, 12 w",4.6
same,Verbal memory: difference between active food and placebo food groups,"test B 100 mg, 12 w",6.8
same,Visual memory: difference between active food and placebo food groups,"test B 100 mg, 12 w",2.1
same,Working memory: difference between active food and placebo food groups,"test B 100 mg, 12 w",0.9
same,Complex attention,"test B 100 mg, 12 w, mean ± SD",109.9 ± 10.1
same,Continuous attention,"test B 100 mg, 12 w, mean ± SD",110.8 ± 13.8
same,Motor speed,"test B 100 mg, 12 w, mean ± SD",108.3 ± 12.9
same,Non-verbal reasoning,"test B 100 mg, 12 w, mean ± SD",107.5 ± 10.6
same,Simple attention,"test B 100 mg, 12 w, mean ± SD",99.2 ± 21.3
same,Social acuity,"test B 100 mg, 12 w, mean ± SD",97.2 ± 17.0
same,Working memory,"test B 100 mg, 12 w, mean ± SD",112.2 ± 7.9
same,Cognition flexibility: difference between active food and placebo food groups,[1],2.4
same,Complex attention: difference between active food and placebo food groups,[1],3.0
same,Composite memory: difference between active food and placebo food groups,[1],5.2
same,Continuous attention: difference between active food and placebo food groups,[1],1.2
same,Executive function: difference between active food and placebo food groups,[1],2.1
same,Motor speed: difference between active food and placebo food groups,[1],6.4
same,Non-verbal reasoning: difference between active food and placebo food groups,[1],3.1
same,Processing speed: difference between active food and placebo food groups,[1],1.5
same,Psychomotor speed: difference between active food and placebo food groups,[1],4.5
same,Reaction time: difference between active food and placebo food groups,[1],1.9
same,Simple attention: difference between active food and placebo food groups,[1],3.3
same,Social acuity: difference between active food and placebo food groups,[1],0.8
same,Verbal memory: difference between active food and placebo food groups,[1],6.4
same,Visual memory: difference between active food and placebo food groups,[1],2.0
same,Working memory: difference between active food and placebo food groups,[1],2.6
same,Cognitive flexibility,[2],105.9 ± 10.0
same,Continuous attention,[2],111.6 ± 6.9
same,Executive function,[2],105.5 ± 9.9
same,Non-verbal reasoning,[2],102.6 ± 14.1
same,Reaction time,[2],98.1 ± 9.0
same,Simple attention,[2],101.2 ± 14.9
same,Social acuity,[2],92.6 ± 16.0
same,Working memory,[2],110.5 ± 7.9
same,"scores regarding motor speed, GABA group compared to the placebo group","test B, at least after eight weeks of ingestion",significant improvement
